Results from US20200163984A1, “USE OF ISOVALERYL SPIRAMYCIN I, II AND/OR III IN MANUFACTURING MEDICAMENT FOR TREATING AND/OR PREVENTING TUMOR, AND MEDICAMENT” (SHENYANG FUYANG PHARMACEUTICAL TECHNOLOGY CO., LTD., priority 2017, published 2020).
One block for each compound: values may come before it.

What was measured:
[1] = system: transplanted tumor of human thyroid cancer cell TPC-1; experiment: TPC-1 transplanted tumor in nude mice; settings: for tumor volume and relative tumor volume compared with the model group: low, medium and high doses, P<0.05; for Tumor Volume (mm3) (d30): d 30; for mouse weight compared with the model group / Body Weight (g) (d1) / Body Weight (g) (d30): in vivo, mouse
Description: Then cell concentration was adjusted to 1×10^7/ml with matrigel, then each nude mouse was inoculated subcutaneously with 0.2 ml of cells at its right armpit and recorded as the first day of inoculation. When the tumor grows to be greater than or equal to 100 mm^3, the mice were randomly divided into 11 groups with 6 mice in each group: isovaleryl spiramycin I groups with doses of 25, 50 and 100 mg/kg, isovaleryl spiramycin II groups with doses of 25, 50 and 100 mg/kg, and isovaleryl spiramycin III groups with doses of 25, 50 and 100 mg/kg. Each group was continuously administered intragastrically for 30 days with a dose of 20 ml/kg. The mice were sacrificed the next day after drug withdrawal and the indicators were tested. The long diameter and short diameter of the tumor, and the body weight of each mouse were recorded every 3 days from drug administration to nude mouse sacrifice.
The body weight of the nude mice and the long diameter (a) and short diameter (b) of the transplanted tumor were measured every 3 days, and the tumor volume (v), relative tumor volume (RTV) and relative tumor proliferation rate (T/C) are calculated respectively according to the following formulas, wherein V=a×b^2/2; RTV=V/V0 (V0 is the tumor volume before administration, V is the tumor volume before sacrifice), and T/C (%)=treatment group RTV/model control group RTV×100%.
Each mouse was weighed and sacrificed. After the tumor was completely stripped off from the body of the mouse, the non-tumor tissues such as blood stains and fat were removed to weigh the tumor and calculate the tumor growth inhibition rate. The average tumor weight of each group of mice is used as an indicator of efficacy. Tumor growth inhibition rate (%)=(1−the average tumor weight of the treatment group/the average tumor weight of the model group)×100%.

[2] = Thymus index and spleen index of H22 liver cancer tumor-bearing mice
Description: (§1) In the H22 liver cancer model, the mice inoculated with the tumor were randomly divided into groups with 10 mice in each group on the next day of inoculation. The groups included: a model control group, a positive drug cyclophosphamide control group (CTX, 26 mg/kg), isovaleryl spiramycin I groups with doses of 13, 26 and 52 mg/kg; isovaleryl spiramycin II groups with doses of 13, 26 and 52 mg/kg; isovaleryl spiramycin III groups with doses of 13, 26 and 52 mg/kg. Each group was continuously administered intragastrically for 7 days with a dose of 20 ml/kg.

[3] = system: spleen lymphocytes (ConA, LPS stimulation); experiment: Spleen lymphocyte proliferation activity of Lewis lung cancer tumor-bearing mice; format: in vivo, C57BL/6 mouse; settings: for lymphocyte activity compared with the control group: Lewis tumor-bearing mice, 13, 26 and 52 mg/kg, P<0.05, P<0.01; for B Lymphocyte Proliferation Activity (%) / T Lymphocyte Proliferation Activity (%): n = 6
Description: as §1, with “the Lewis lung” for “the H22 liver”, “group” for “group on”, “(CTX, 30” for “(CTX, 26”, “for 15” for “for 7”
The serum-free RPMI 1640 medium was placed in a dish, and then the dish was placed on ice. The spleen was aseptically taken and gently ground with a sterile glass slide to prepare a single cell suspension. The single cell suspension was filtered with a double-layer sterile gauze, washed twice with serum-free RPMI1640 medium, and centrifuged at 1,500 rpm for 5 min to remove the obtained supernatant. 2 mL of red blood cell lysate was added to the treated suspension, the mixture was allowed to stand for 2 min, and then 8 mL of RPMI 1640 medium was added, centrifuging was performed at 1,500 rpm for 5 min to remove the obtained supernatant, and then washing was performed twice with the RPMI 1640 medium. […] A single cell suspension was prepared by using a RPMI 1640 medium containing 10% fetal bovine serum.
The spleen cell suspension was taken, and the cell density was adjusted to 1×10^7/mL. Each mouse was set with: A. a control well: 100 μL of RPMI 1640 medium was added; B. a concanavalin A (ConA) stimulation well: 100 μL (10 mg/L) of concanavalin A (ConA) solution was added; and C. a bacterial endotoxin (LPS) stimulating well: 100 μL (20 mg/L) of bacterial endotoxin (LPS) solution was added. The above cells were added to a 96-well plate, and then 100 μL of spleen cell suspension was added to each of the above wells. After the culture plate was transferred to a saturated humidity condition with a volume fraction of 5% CO2 at 37° C. for incubation for 72 h, 10 μL of MTT solution (5 g/L) was added to each well, and incubation was continued to be performed for 4 hours under the same conditions, then the culture was terminated. 100 μl of a triple solution (SDS 10 g, 10M HCl 0.1 mL, […] 5 mL, diluted with distilled water to 100 mL) was added, and the plate was shaken for 10 min to fully dissolve the crystals. The Optical Density (OD) of each well was measured at 570 nm, and the lymphocyte proliferation rate was calculated. Lymphocyte proliferation rate (%)=[(T-C)/C]×100%, wherein T was the Optical Density of the stimulation well, and C is the Optical Density of the control well.

[4] = TPC-1, high dose (100 mg/kg in method) i.g. 30 days
[5] = TPC-1, low dose (25 mg/kg in method) i.g. 30 days
[6] = TPC-1, medium dose (50 mg/kg in method) i.g. 30 days

mouse weight compared with the model group [1]: no significant changes
SMILES: COC1C(OC(C)=O)CC(=O)OC(C)CC=CC=CC(OC2CCC(N(C)C)C(C)O2)C(C)CC(CC=O)C1OC1OC(C)C(OC2CC(C)(O)C(OC(=O)CC(C)C)C(C)O2)C(N(C)C)C1O (stereo not drawn) [Isovaleryl spiramycin II, isovaleryl spiramycin II]
Relative Tumor Proliferation Rate (T/C) [1, 4]: 38.61% | tumor growth inhibition rate [1, 4]: 62.04% | Relative Tumor Proliferation Rate (T/C) [1, 5]: 86.15% | tumor growth inhibition rate [1, 5]: 20.91% | tumor volume and relative tumor volume compared with the model group ([1]; TPC-1): significantly lower | Relative Tumor Proliferation Rate (T/C) [1, 6]: 59.08% | tumor growth inhibition rate [1, 6]: 31.61% | Inhibition Rate (%) ([1]; dose 25 mg/kg): 20.91% | Relative Tumor Proliferation Rate (T/C) ([1]; dose 25 mg/kg): 86.15% | Relative Tumor Volume (RTV) ([1]; dose 25 mg/kg): 14.18 ± 1.70 | Tumor Weight ([1]; dose 25 mg/kg): 1.91 ± 0.33 g | Tumor Volume (mm3) (d 1) ([1]; dose 25 mg/kg): 119.12 ± 3.42 mm3 | Tumor Volume (mm3) (d30) ([1]; dose 25 mg/kg): 1689.63 ± 210.37 mm3 | Inhibition Rate (%) ([1]; dose 50 mg/kg): 31.61% | Relative Tumor Proliferation Rate (T/C) ([1]; dose 50 mg/kg): 59.08% | Relative Tumor Volume (RTV) ([1]; dose 50 mg/kg): 9.72 ± 3.02 | Tumor Weight ([1]; dose 50 mg/kg): 1.65 ± 0.32 g | Tumor Volume (mm3) (d 1) ([1]; dose 50 mg/kg): 118.54 ± 6.49 mm3 | Tumor Volume (mm3) (d30) ([1]; dose 50 mg/kg): 1148.57 ± 344.78 mm3 | Inhibition Rate (%) ([1]; dose 100 mg/kg): 62.04% | Relative Tumor Proliferation Rate (T/C) ([1]; dose 100 mg/kg): 38.61% | Relative Tumor Volume (RTV) ([1]; dose 100 mg/kg): 6.36 ± 2.38 | Tumor Weight ([1]; dose 100 mg/kg): 0.92 ± 0.42 g | Tumor Volume (mm3) (d 1) ([1]; dose 100 mg/kg): 117.30 ± 6.48 mm3 | Tumor Volume (mm3) (d30) ([1]; dose 100 mg/kg): 754.42 ± 320.69 mm3 | Body Weight (g) (d1) ([1]; 25 mg/kg): 20.54 ± 1.45 g | Body Weight (g) (d30) ([1]; 25 mg/kg): 21.16 ± 1.37 g | Body Weight (g) (d1) ([1]; 50 mg/kg): 20.07 ± 1.13 g | Body Weight (g) (d30) ([1]; 50 mg/kg): 12.45 ± 1.63 g | Body Weight (g) (d1) ([1]; 100 mg/kg): 21.78 ± 1.53 g | Body Weight (g) (d30) ([1]; 100 mg/kg): 12.11 ± 1.20 g | Spleen Index (%) ([2]; dose 13 mg/kg): 0.59 ± 0.24% | Thymus Index (%) ([2]; dose 13 mg/kg): 0.12 ± 0.05% | Spleen Index (%) ([2]; dose 26 mg/kg): 0.68 ± 0.24% | Thymus Index (%) ([2]; dose 26 mg/kg): 0.16 ± 0.03% | Spleen Index (%) ([2]; dose 52 mg/kg): 0.64 ± 0.17% | Thymus Index (%) ([2]; dose 52 mg/kg): 0.17 ± 0.10% | lymphocyte activity compared with the control group [3]: significantly increase | B Lymphocyte Proliferation Activity (%) ([3]; dose 13 mg/kg): 39.88 ± 3.57% | T Lymphocyte Proliferation Activity (%) ([3]; dose 13 mg/kg): 16.87 ± 3.28% | B Lymphocyte Proliferation Activity (%) ([3]; dose 26 mg/kg): 32.68 ± 2.68% | T Lymphocyte Proliferation Activity (%) ([3]; dose 26 mg/kg): 15.82 ± 1.68% | B Lymphocyte Proliferation Activity (%) ([3]; dose 52 mg/kg): 35.94 ± 3.80% | T Lymphocyte Proliferation Activity (%) ([3]; dose 52 mg/kg): 19.28 ± 2.35%

mouse weight compared with the model group [1]: no significant changes
SMILES: CO[C@@H]1[C@@H](O[C@@H]2O[C@H](C)[C@@H](O[C@H]3C[C@@](C)(O)[C@@H](OC(=O)CC(C)C)[C@H](C)O3)[C@H](N(C)C)[C@H]2O)[C@@H](CC=O)C[C@@H](C)[C@@H](O[C@H]2CC[C@H](N(C)C)[C@@H](C)O2)/C=C/C=C/C[C@@H](C)OC(=O)C[C@H]1O [Isovaleryl spiramycin I, isovaleryl spiramycin I]
Relative Tumor Proliferation Rate (T/C) [1, 4]: 28.11% | tumor growth inhibition rate [1, 4]: 67.49% | Relative Tumor Proliferation Rate (T/C) [1, 5]: 65.45% | tumor growth inhibition rate [1, 5]: 23.88% | tumor volume and relative tumor volume compared with the model group ([1]; TPC-1): significantly lower | Relative Tumor Proliferation Rate (T/C) [1, 6]: 43.43% | tumor growth inhibition rate [1, 6]: 57.28% | Inhibition Rate (%) ([1]; dose 25 mg/kg): 23.88% | Relative Tumor Proliferation Rate (T/C) ([1]; dose 25 mg/kg): 65.45% | Relative Tumor Volume (RTV) ([1]; dose 25 mg/kg): 10.77 ± 2.47 | Tumor Weight ([1]; dose 25 mg/kg): 1.84 ± 0.25 g | Tumor Volume (mm3) (d 1) ([1]; dose 25 mg/kg): 115.05 ± 9.93 mm3 | Tumor Volume (mm3) (d30) ([1]; dose 25 mg/kg): 1249.28 ± 337.45 mm3 | Inhibition Rate (%) ([1]; dose 50 mg/kg): 57.28% | Relative Tumor Proliferation Rate (T/C) ([1]; dose 50 mg/kg): 43.43% | Relative Tumor Volume (RTV) ([1]; dose 50 mg/kg): 7.15 ± 3.19 | Tumor Weight ([1]; dose 50 mg/kg): 1.03 ± 0.44 g | Tumor Volume (mm3) (d 1) ([1]; dose 50 mg/kg): 119.45 ± 4.30 mm3 | Tumor Volume (mm3) (d30) ([1]; dose 50 mg/kg): 847.07 ± 356.87 mm3 | Inhibition Rate (%) ([1]; dose 100 mg/kg): 67.49% | Relative Tumor Proliferation Rate (T/C) ([1]; dose 100 mg/kg): 28.11% | Relative Tumor Volume (RTV) ([1]; dose 100 mg/kg): 4.63 ± 3.34 | Tumor Weight ([1]; dose 100 mg/kg): 0.79 ± 0.43 g | Tumor Volume (mm3) (d 1) ([1]; dose 100 mg/kg): 112.69 ± 11.49 mm3 | Tumor Volume (mm3) (d30) ([1]; dose 100 mg/kg): 490.15 ± 322.14 mm3 | Body Weight (g) (d1) ([1]; 25 mg/kg): 21.75 ± 1.23 g | Body Weight (g) (d30) ([1]; 25 mg/kg): 24.41 ± 1.32 g | Body Weight (g) (d1) ([1]; 50 mg/kg): 21.53 ± 1.43 g | Body Weight (g) (d30) ([1]; 50 mg/kg): 25.77 ± 1.10 g | Body Weight (g) (d1) ([1]; 100 mg/kg): 21.76 ± 1.08 g | Body Weight (g) (d30) ([1]; 100 mg/kg): 24.12 ± 1.20 g | Spleen Index (%) ([2]; dose 13 mg/kg): 0.72 ± 0.07% | Thymus Index (%) ([2]; dose 13 mg/kg): 0.15 ± 0.07% | Spleen Index (%) ([2]; dose 26 mg/kg): 0.60 ± 0.15% | Thymus Index (%) ([2]; dose 26 mg/kg): 0.14 ± 0.01% | Spleen Index (%) ([2]; dose 52 mg/kg): 0.86 ± 0.25 % | Thymus Index (%) ([2]; dose 52 mg/kg): 0.12 ± 0.04% | lymphocyte activity compared with the control group [3]: significantly increase | B Lymphocyte Proliferation Activity (%) ([3]; dose 13 mg/kg): 41.63 ± 7.06 % | T Lymphocyte Proliferation Activity (%) ([3]; dose 13 mg/kg): 25.27 ± 8.20 % | B Lymphocyte Proliferation Activity (%) ([3]; dose 26 mg/kg): 44.81 ± 4.41 % | T Lymphocyte Proliferation Activity (%) ([3]; dose 26 mg/kg): 36.24 ± 2.15 % | B Lymphocyte Proliferation Activity (%) ([3]; dose 52 mg/kg): 32.71 ± 1.84% | T Lymphocyte Proliferation Activity (%) ([3]; dose 52 mg/kg): 22.26 ± 4.33%
